ChEMBL document CHEMBL5154935, “Design, Synthesis, and Biological Evaluation of Novel Evodiamine Derivatives as Potential Antihepatocellular Carcinoma Agents” (J Med Chem, 2022)
Activity calls are given as the source filed them. The rule behind the calls is not given here.

Columns and labels:
Huh-7 [1] = test: Induction of apoptosis in human Huh-7 cells assessed as late apoptotic cells at 10 nM incubated for 24 hrs by annexin V-FITC/PI staining flow cytometry (reference value: 1.33 %); assay type: functional
SMMC-7721 = test: Antiproliferative activity against human SMMC-7721 cells treated for 72 hrs by MTT assay; assay type: functional, cell-based; conditions: SMMC-7721, 72 h
Huh-7 [2] = test: Induction of apoptosis in human Huh-7 cells assessed as early apoptotic cells at 10 nM incubated for 24 hrs by annexin V-FITC/PI staining flow cytometry (reference value: 0.33 %); assay type: functional
SK-HEP1 [3] = test: Induction of apoptosis in human SK-Hep1 cells assessed as viable cells at 10 nM incubated for 24 hrs by annexin V-FITC/PI staining flow cytometry (reference value: 97.8 %); assay type: functional; conditions: read-out: Activity
Huh-7 [4] = test: Induction of ROS generation in human Huh-7 cells incubated for 24 hrs by DCFH2-DA probe based flow cytometry; assay type: functional, cell-based; conditions: dose 10-80 nM, DDE = dose-dependent effect
Huh-7 [5] = test: Induction of apoptosis in human Huh-7 cells assessed as late apoptotic cells at 80 nM incubated for 24 hrs by annexin V-FITC/PI staining flow cytometry (reference value: 1.33 %); assay type: functional
Huh-7 [6] = test: Induction of apoptosis in human Huh-7 cells assessed as necrotic cells at 80 nM incubated for 24 hrs by annexin V-FITC/PI staining flow cytometry (reference value: 1.08 %); assay type: functional
SK-HEP1 [7] = test: Induction of cell cycle arrest in human SK-Hep1 cells assessed as accumulation at S phase at 40 nM treated for 24 hrs by PI staining based flow cytometry (reference value: 24.98 %); assay type: functional
SK-HEP1 [8] = test: Induction of apoptosis in human SK-Hep1 cells assessed as cell membrane permeability by measuring blue fluorescence incubated for 24 hrs by Hoechst staining based microscopy; assay type: functional; conditions: dose 12-60 nM, DDE = dose-dependent effect
SK-HEP1 [9] = test: Induction of apoptosis in human SK-Hep1 cells assessed as necrotic cells at 80 nM incubated for 24 hrs by annexin V-FITC/PI staining flow cytometry (reference value: 0.73 %); assay type: functional
Huh-7 [10] = test: Induction of apoptosis in human Huh-7 cells assessed as cytoskeleton disintegration incubated for 24 hrs by Giemsa staining based microscopy; assay type: functional, cell-based; conditions: dose 12-60 nM, DDE = dose-dependent effect
SK-HEP1 [11] = test: Induction of cell cycle arrest in human SK-Hep1 cells assessed as accumulation at G2 phase at 40 nM treated for 24 hrs by PI staining based flow cytometry (reference value: 16.55 %); assay type: functional
Huh-7 [12] = test: Induction of apoptosis in human Huh-7 cells assessed as viable cells at 10 nM incubated for 24 hrs by annexin V-FITC/PI staining flow cytometry (reference value: 97.3 %); assay type: functional; conditions: read-out: Activity
[13] = Induction of apoptosis in rat HSC-T6 cells assessed as necrotic cells at 40 nM pretreated with TGFbeta-1 for 1 day followed by compound addition and measured after 24 hrs by flow cytometry (reference value: 0.56 %); assay type: functional
SK-HEP1 [14] = test: Induction of apoptosis in human SK-Hep1 cells assessed as viable cells at 80 nM incubated for 24 hrs by annexin V-FITC/PI staining flow cytometry (reference value: 97.8 %); assay type: functional; conditions: read-out: Activity
[15] = target: T1, DNA topoisomerase 1 (Homo sapiens) (UniProt P11387); test: Inhibition of Top1 (unknown origin) assessed as inhibition of relaxation of supercoiled pBR322 plasmid DNA at 50 uM incubated for 25 mins by ethidium bromide staining based agarose gel electrophoresis analysis relative to control
T1 sequence (whole entry): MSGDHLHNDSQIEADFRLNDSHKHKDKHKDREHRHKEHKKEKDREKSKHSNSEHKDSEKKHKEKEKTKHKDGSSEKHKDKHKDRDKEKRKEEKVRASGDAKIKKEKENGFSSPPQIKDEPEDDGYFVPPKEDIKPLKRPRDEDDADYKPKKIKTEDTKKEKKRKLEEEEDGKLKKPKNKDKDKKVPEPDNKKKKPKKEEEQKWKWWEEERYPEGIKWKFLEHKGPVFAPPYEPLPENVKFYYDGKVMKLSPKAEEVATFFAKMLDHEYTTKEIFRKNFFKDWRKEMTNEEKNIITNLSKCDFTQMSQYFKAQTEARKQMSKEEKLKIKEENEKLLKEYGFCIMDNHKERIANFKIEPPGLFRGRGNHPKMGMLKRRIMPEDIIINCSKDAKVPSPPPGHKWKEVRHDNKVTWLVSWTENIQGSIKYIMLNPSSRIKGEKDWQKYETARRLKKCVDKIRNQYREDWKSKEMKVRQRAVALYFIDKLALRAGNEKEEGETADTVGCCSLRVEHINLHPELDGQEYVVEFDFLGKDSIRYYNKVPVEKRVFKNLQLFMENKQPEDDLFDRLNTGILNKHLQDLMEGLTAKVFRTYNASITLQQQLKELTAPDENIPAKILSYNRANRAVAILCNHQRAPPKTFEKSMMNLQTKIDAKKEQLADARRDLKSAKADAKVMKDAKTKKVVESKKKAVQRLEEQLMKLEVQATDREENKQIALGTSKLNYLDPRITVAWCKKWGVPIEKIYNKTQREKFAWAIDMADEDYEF

[16] = Induction of apoptosis in rat HSC-T6 cells assessed as late apoptotic cells at 40 nM pretreated with TGFbeta-1 for 1 day followed by compound addition and measured after 24 hrs by flow cytometry (reference value: 1.76 %); assay type: functional
Huh-7 [17] = test: Induction of apoptosis in human Huh-7 cells assessed as necrotic cells at 10 nM incubated for 24 hrs by annexin V-FITC/PI staining flow cytometry (reference value: 1.08 %); assay type: functional
SK-HEP1 [18] = test: Induction of apoptosis in human SK-Hep1 cells assessed as late apoptotic cells at 80 nM incubated for 24 hrs by annexin V-FITC/PI staining flow cytometry (reference value: 1.13 %); assay type: functional
[19] = Induction of apoptosis in rat HSC-T6 cells assessed as necrotic cells at 10 nM pretreated with TGFbeta-1 for 1 day followed by compound addition and measured after 24 hrs by flow cytometry (reference value: 0.56 %); assay type: functional
[20] = target: DNA topoisomerase 2-alpha (Homo sapiens) (UniProt P11388); test: Inhibition of human Top2-alpha expressed in baculovirus assessed as inhibition of relaxation of supercoiled pBR322 plasmid DNA at 100 uM incubated for 30 mins in presence of ATP by ethidium bromide staining based agarose gel electrophoresis analysis relative to control
SK-HEP1 [21] = test: Induction of apoptosis in human SK-Hep1 cells assessed as early apoptotic cells at 10 nM incubated for 24 hrs by annexin V-FITC/PI staining flow cytometry (reference value: 0.30 %); assay type: functional
Huh-7 [22] = test: Inhibition of cell migration in human Huh-7 cells incubated for 24 hrs by scratch wound healing assay; assay type: functional, cell-based; conditions: dose 3-18 nM, DDE = dose-dependent effect
SK-HEP1 [23] = test: Induction of cell cycle arrest in human SK-Hep1 cells assessed as accumulation at G2 phase at 80 nM treated for 24 hrs by PI staining based flow cytometry (reference value: 16.55 %); assay type: functional
Huh-7 [24] = test: Inhibition of cell migration in human Huh-7 cells at 3 to 18 nM incubated for 24 hrs by crystal violet staining based transwell assay; assay type: functional; conditions: dose 3-18 nM

Sequence of DNA topoisomerase 2-alpha (Homo sapiens) (P11388 whole entry): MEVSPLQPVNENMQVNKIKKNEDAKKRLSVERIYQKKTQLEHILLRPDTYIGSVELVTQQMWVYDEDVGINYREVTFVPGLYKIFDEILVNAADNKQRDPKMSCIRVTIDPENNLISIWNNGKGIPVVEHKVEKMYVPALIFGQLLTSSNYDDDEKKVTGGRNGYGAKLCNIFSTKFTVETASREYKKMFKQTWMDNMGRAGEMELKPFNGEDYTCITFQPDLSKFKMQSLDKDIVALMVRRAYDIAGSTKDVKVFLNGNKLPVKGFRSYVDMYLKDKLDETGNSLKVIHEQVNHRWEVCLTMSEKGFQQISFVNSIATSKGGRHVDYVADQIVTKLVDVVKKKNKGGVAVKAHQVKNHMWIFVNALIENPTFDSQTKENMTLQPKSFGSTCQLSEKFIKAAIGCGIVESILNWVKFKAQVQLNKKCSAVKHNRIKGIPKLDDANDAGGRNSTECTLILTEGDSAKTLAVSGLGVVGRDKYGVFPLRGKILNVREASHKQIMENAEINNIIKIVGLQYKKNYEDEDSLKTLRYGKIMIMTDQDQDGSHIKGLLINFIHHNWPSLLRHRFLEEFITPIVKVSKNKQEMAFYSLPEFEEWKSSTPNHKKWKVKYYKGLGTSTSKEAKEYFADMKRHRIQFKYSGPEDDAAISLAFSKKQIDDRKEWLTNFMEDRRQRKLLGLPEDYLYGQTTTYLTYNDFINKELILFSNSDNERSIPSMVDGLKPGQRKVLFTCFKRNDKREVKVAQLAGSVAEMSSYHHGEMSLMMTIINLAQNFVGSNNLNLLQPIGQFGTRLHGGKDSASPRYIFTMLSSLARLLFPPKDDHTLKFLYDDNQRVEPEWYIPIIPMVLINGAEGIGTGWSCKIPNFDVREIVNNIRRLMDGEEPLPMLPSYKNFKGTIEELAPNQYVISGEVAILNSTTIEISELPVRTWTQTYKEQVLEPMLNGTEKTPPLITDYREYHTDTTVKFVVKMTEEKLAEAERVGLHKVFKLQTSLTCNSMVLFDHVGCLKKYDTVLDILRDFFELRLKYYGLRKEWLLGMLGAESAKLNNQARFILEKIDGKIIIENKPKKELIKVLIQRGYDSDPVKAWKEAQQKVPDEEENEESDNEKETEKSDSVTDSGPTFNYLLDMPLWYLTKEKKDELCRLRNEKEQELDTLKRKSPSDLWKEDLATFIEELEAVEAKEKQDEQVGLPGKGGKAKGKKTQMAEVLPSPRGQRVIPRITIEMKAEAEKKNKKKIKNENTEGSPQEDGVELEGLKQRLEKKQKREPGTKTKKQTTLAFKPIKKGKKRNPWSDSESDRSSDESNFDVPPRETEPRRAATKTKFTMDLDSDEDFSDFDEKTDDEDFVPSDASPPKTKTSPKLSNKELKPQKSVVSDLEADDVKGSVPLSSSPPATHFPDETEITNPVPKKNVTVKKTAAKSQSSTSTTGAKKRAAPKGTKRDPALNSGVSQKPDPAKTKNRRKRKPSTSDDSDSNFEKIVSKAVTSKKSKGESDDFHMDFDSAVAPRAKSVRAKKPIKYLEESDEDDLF

Row | SMILES | Activity (Huh-7 [1]) [%] | IC50 (SMMC-7721) [nM] | Activity (Huh-7 [2]) [%] | viability at 0.01 µM (SK-HEP1 [3]) [%] | Activity (Huh-7 [4]) | Activity (Huh-7 [5]) [%] | Activity (Huh-7 [6]) [%] | Activity (SK-HEP1 [7]) [%] | Activity (SK-HEP1 [8]) | Activity (SK-HEP1 [9]) [%] | Activity (Huh-7 [10]) | Activity (SK-HEP1 [11]) [%] | viability at 0.01 µM (Huh-7 [12]) [%] | Activity [13] [%] | viability at 0.08 µM (SK-HEP1 [14]) [%] | inhibition [15] [%] | Activity [16] [%] | Activity (Huh-7 [17]) [%] | Activity (SK-HEP1 [18]) [%] | Activity [19] [%] | also measured
1 | CC(=O)Oc1ccc2[nH]c3c(c2c1)CCN1C(=O)c2cc(F)cc(F)c2N(c2cccc(F)c2)C31 (stereo not given) | 4.02 | 80 | 0.63 | 86.7 | Dde | 29.4 | 9.88 | 4.18 | Dde | 2.63 | Dde | 70.47 | 93.8 | 1.29 | 84 | 94 | 12.8 | 1.51 | 19.5 | 0.93 | inhibition [20]: 63.7%; Activity (SK-HEP1 [21]): 5.25%; inhibition (Huh-7 [22]): Dde; Activity (SK-HEP1 [23]): 76.35%; inhibition (Huh-7 [24]): Active
2 | O=C1c2cc(F)cc(F)c2N(c2cccc(F)c2)C2c3[nH]c4ccc(O)cc4c3CCN12 (stereo not given) | 4.61 | 90 | 0.73 | 92.9 | Dde | 30 | 9.82 | 4.11 | Dde | 2.39 | Dde | 74.07 | 93.1 | 1.11 | 73.4 | 92.5 | 10.4 | 1.53 | 15.4 | 0.8 | inhibition [20]: 67%; Activity (SK-HEP1 [21]): 0.91%; inhibition (Huh-7 [22]): Dde; Activity (SK-HEP1 [23]): 83.92%; inhibition (Huh-7 [24]): Active
